Patent publication US4120955A, “Method for production of kanamycin C and its derivatives” (Zaidan Hojin Biseibutsu Kagaku Kenkyu Kai, priority 1976, dated 1978)
In brackets after ≈: the same amount, converted by molar mass. Like-named read-outs stand apart in the source and are kept apart here.

Tests used:
[1] = tested on: resistant strains which produce 6'-acetyltransferases, for example Pseudomonas aeruginosa GN315; experiment: Activity against resistant strains producing 6'-acetyltransferases; assay type: cell-based; conditions: compared with kanamycin B derivatives
[2] = tested on: Escherichia coli LA 290 R56; experiment: Minimum inhibitory concentration, serial dilution method; assay type: cell-based; conditions: LA290R56, 18 h, read-out: Minimum Inhibitory Concentration
Procedure: (§1) The minimum inhibitory concentrations (mcg/ml) of kanamycin C, 3'-deoxykanamycin C and 3',4'-dideoxykanamycin C against various microorganisms were determened according to serial dilution method using nutrient agar medium at 37° C., the estimation being effected after 18 hours incubation.

[3] = tested on: Klebsiella pneumoniae 22 No. 3038; experiment: as above; assay type: cell-based; conditions: 22NO.3038, 18 h, read-out: Minimum Inhibitory Concentration
Procedure: as §1

[4] = tested on: Escherichia coli W 677; experiment: as above; assay type: cell-based; conditions: W677, 18 h, read-out: Minimum Inhibitory Concentration
Procedure: as §1

[5] = tested on: Pseudomonas aeruginosa GN 315; experiment: as above; assay type: cell-based
Procedure: as §1

[6] = tested on: Escherichia coli K-12; experiment: as above; assay type: cell-based; conditions: K12, 18 h, read-out: Minimum Inhibitory Concentration
Procedure: as §1

[7] = tested on: Pseudomonas aeruginosa A3; experiment: as above; assay type: cell-based; conditions: nutrient agar, 37° C., 18 hours, P. aeruginosa A3
Procedure: as §1

[8] = tested on: Pseudomonas aeruginosa No. 12; experiment: as above; assay type: cell-based; conditions: NO.12, 18 h, read-out: Minimum Inhibitory Concentration
Procedure: as §1

[9] = tested on: Escherichia coli LA 290 R64; experiment: as above; assay type: cell-based; conditions: LA290R64, 18 h, read-out: Minimum Inhibitory Concentration
Procedure: as §1

[10] = tested on: Escherichia coli K-12 R5; experiment: as above; assay type: cell-based; conditions: K12R5, 18 h, read-out: Minimum Inhibitory Concentration
Procedure: as §1

[11] = tested on: Staphylococcus aureus FDA 209P; experiment: as above; assay type: cell-based; conditions: FDA209P, 18 h, read-out: Minimum Inhibitory Concentration
Procedure: as §1

[12] = tested on: Escherichia coli K-12 ML 1410; experiment: as above; assay type: cell-based; conditions: K12ML1410, nutrient agar, 37° C., 18 hours, E. coli K-12 ML 1410
Procedure: as §1

[13] = tested on: Escherichia coli LA 290 R55; experiment: as above; assay type: cell-based; conditions: LA290R55, 18 h, read-out: Minimum Inhibitory Concentration
Procedure: as §1

[14] = tested on: Escherichia coli K-12 ML 1410 R81; experiment: as above; assay type: cell-based; conditions: 18 h, read-out: Minimum Inhibitory Concentration
Procedure: as §1

[15] = tested on: Escherichia coli K-12 ML 1630; experiment: as above; assay type: cell-based; conditions: K12ML1630, nutrient agar, 37° C., 18 hours, E. coli K-12 ML 1630
Procedure: as §1

[16] = tested on: Pseudomonas aeruginosa TI-13; experiment: as above; assay type: cell-based
Procedure: as §1

[17] = tested on: Escherichia coli K-12 ML 1629; experiment: as above; assay type: cell-based; conditions: K12ML1629, 18 h, read-out: Minimum Inhibitory Concentration
Procedure: as §1

[18] = tested on: Escherichia coli JR 66/W677; experiment: as above; assay type: cell-based; conditions: JR66/W677, 18 h, read-out: Minimum Inhibitory Concentration
Procedure: as §1

[19] = tested on: Pseudomonas aeruginosa H 11; experiment: as above; assay type: cell-based
Procedure: as §1

[20] = tested on: Escherichia coli NIHJ; experiment: as above; assay type: cell-based; conditions: 18 h, read-out: Minimum Inhibitory Concentration
Procedure: as §1

[21] = tested on: Klebsiella pneumoniae PCI 602; experiment: as above; assay type: cell-based; conditions: PCI602, 18 h, read-out: Minimum Inhibitory Concentration
Procedure: as §1

[22] = tested on: 99; experiment: as above; assay type: cell-based; conditions: 18 h, read-out: Minimum Inhibitory Concentration
Procedure: as §1

[23] = tested on: Mycobacterium smegmatis ATCC 607; experiment: as above; assay type: cell-based; conditions: Mycolicibacterium smegmatis, read-out: Minimum Inhibitory Concentration
Procedure: as §1

[24] = tested on: bacterial strains; experiment: Antibacterial activity in general (summary of Table 1); assay type: cell-based; conditions: for antibacterial activity compared with 3'-deoxykanamycin B and 3',4'-dideoxykanamycin B: against some bacteria strains
Procedure: as §1

[25] = tested on: aminoglycoside 6'-acetyltransferases; experiment: Inactivation by aminoglycoside 6'-acetyltransferases; assay type: biochemical
[26] = in vivo; conditions: mouse, iv
[27] = tested on: aminoglycoside 3'-phosphotransferases; experiment: Inactivation by aminoglycoside 3'-phosphotransferases; assay type: biochemical
[28] = mouse, in vivo
[29] = tested on: aminoglycoside 6'-acetyltransferases; conditions: known kanamycins; cited from earlier work

Structure (SMILES): NC1CC(O)C(CO)OC1OC1C(N)CC(N)C(OC2OC(CO)C(O)C(N)C2O)C1O (centres unmarked) [3'-Deoxykanamycin C, 3'-deoxykanamycin C]
- activity against resistant strains which produce 6'-acetyltransferases [1]: more active than kanamycin B derivatives
- MIC [2]: 100 µg/mL (≈ 213 µM)
- MIC [3]: > 100 µg/mL
- MIC [4]: 6.25 µg/mL (≈ 13.3 µM)
- MIC ([5]; GN315, nutrient agar, 37° C., 18 hours, P. aeruginosa GN 315, read-out: Minimum Inhibitory Concentration): 50 µg/mL (≈ 107 µM)
- MIC [6]: 12.5 µg/mL (≈ 26.7 µM)
- MIC [7]: 12.5 µg/mL (≈ 26.7 µM)
- MIC [8]: 100 µg/mL (≈ 213 µM)
- MIC [9]: 50 µg/mL (≈ 107 µM)
- MIC [10]: 12.5 µg/mL (≈ 26.7 µM)
- MIC [11]: 3.13 µg/mL (≈ 6.68 µM)
- MIC [12]: 12.5 µg/mL (≈ 26.7 µM)
- MIC [13]: > 100 µg/mL
- MIC [14]: 50 µg/mL (≈ 107 µM)
- MIC [15]: 12.5 µg/mL (≈ 26.7 µM)
- MIC ([16]; TI13, nutrient agar, 37° C., 18 hours, P. aeruginosa TI-13, read-out: Minimum Inhibitory Concentration): 50 µg/mL (≈ 107 µM)
- MIC [17]: 12.5 µg/mL (≈ 26.7 µM)
- MIC [18]: > 100 µg/mL
- MIC ([19]; H11, nutrient agar, 37° C., 18 hours, P. aeruginosa H 11, read-out: Minimum Inhibitory Concentration): 50 µg/mL (≈ 107 µM)
- MIC [20]: 12.5 µg/mL (≈ 26.7 µM)
- MIC [21]: 6.25 µg/mL (≈ 13.3 µM)
- MIC [22]: 100 µg/mL (≈ 213 µM)
- MIC ([23]; ATCC607, 18 h): 25 µg/mL (≈ 53.4 µM)
- growth inhibition of bacterial strains [24]: inhibits the growth of many kinds of bacterial strains
- antibacterial activity compared with 3'-deoxykanamycin B and 3',4'-dideoxykanamycin B [24]: inferior
- inactivation by 6'-acetyltransferases [25]: not inactivated
- LD50 [26]: > 300 mg/kg
- inactivation by 3'-phosphotransferases [27]: not inactivated
- acute toxicity compared with deoxy derivatives of kanamycin B [28]: remarkably lower toxicity

Structure (SMILES): NC1CCC(CO)OC1OC1C(N)CC(N)C(OC2OC(CO)C(O)C(N)C2O)C1O (centres unmarked) [3',4'-Dideoxykanamycin C, 3',4'-dideoxykanamycin C]
- MIC [2]: 100 µg/mL (≈ 221 µM)
- MIC [3]: > 100 µg/mL
- MIC [4]: 6.25 µg/mL (≈ 13.8 µM)
- MIC ([5]; GN315, 18 h, read-out: Minimum Inhibitory Concentration): 100 µg/mL (≈ 221 µM)
- MIC [6]: 25 µg/mL (≈ 55.2 µM)
- MIC [7]: 100 µg/mL (≈ 221 µM)
- MIC [8]: 100 µg/mL (≈ 221 µM)
- MIC [9]: 100 µg/mL (≈ 221 µM)
- MIC [10]: 12.5 µg/mL (≈ 27.6 µM)
- MIC [11]: 6.25 µg/mL (≈ 13.8 µM)
- MIC [12]: 12.5 µg/mL (≈ 27.6 µM)
- MIC [13]: > 100 µg/mL
- MIC [14]: 50 µg/mL (≈ 110 µM)
- MIC [15]: 12.5 µg/mL (≈ 27.6 µM)
- MIC ([16]; TI13, 18 h, read-out: Minimum Inhibitory Concentration): 100 µg/mL (≈ 221 µM)
- MIC [17]: 12.5 µg/mL (≈ 27.6 µM)
- MIC [18]: > 100 µg/mL
- MIC ([19]; H11, 18 h, read-out: Minimum Inhibitory Concentration): 100 µg/mL (≈ 221 µM)
- MIC [20]: 12.5 µg/mL (≈ 27.6 µM)
- MIC [21]: 25 µg/mL (≈ 55.2 µM)
- MIC [22]: > 100 µg/mL
- MIC ([23]; ATCC607, nutrient agar, 37° C., 18 hours, M. smegmatis ATCC 607): 50 µg/mL (≈ 110 µM)
- growth inhibition of bacterial strains [24]: inhibits the growth of many kinds of bacterial strains
- antibacterial activity compared with 3'-deoxykanamycin B and 3',4'-dideoxykanamycin B [24]: inferior
- inactivation by 6'-acetyltransferases [25]: not inactivated
- LD50 [26]: > 300 mg/kg
- inactivation by 3'-phosphotransferases [27]: not inactivated
- acute toxicity compared with deoxy derivatives of kanamycin B [28]: remarkably lower toxicity

Structure (SMILES): NC[C@H]1O[C@H](O[C@H]2[C@H](O)[C@@H](O[C@H]3O[C@H](CO)[C@@H](O)[C@H](N)[C@H]3O)[C@H](N)C[C@@H]2N)[C@H](N)[C@@H](O)[C@@H]1O [kanamycin B]
- inactivation (acetylation of the 6'-amino group) by 6'-acetyltransferases [29]: acetylate the 6'-amino group

Structure (SMILES): NCC1OC(OC2C(N)CC(N)C(OC3OC(CO)C(O)C(N)C3O)C2O)C(O)C(O)C1O (centres unmarked) [kanamycin A]
- inactivation (acetylation of the 6'-amino group) by 6'-acetyltransferases [29]: acetylate the 6'-amino group
